In ChEMBL document CHEMBL5465560, “Selectivity Literature for EUbOPEN Chemogenomic Library” (2024):
One block for each molecule: values may come before it.

Assays:
[1] = tested on: Tyrosine-protein kinase ABL1 (Homo sapiens), P00519 [T315I]; experiment: Selectivity interaction (KinomeScan (DiscoverX)) EUB0001049a ABL1; details: at 1 µM
[2] = biological target: Serine/threonine-protein kinase MARK2 (Homo sapiens) (UniProt Q7KZI7); experiment: Selectivity interaction (ActivX KiNativ screen (kinase selectivity in THP-1 cell lysates)) EUB0000639a MARK2; assay type: subcellular; details: lysate, at 1 µM
[3] = biological target: Ribosomal protein S6 kinase alpha-1 (Homo sapiens, UniProt Q15418); experiment: Selectivity interaction (ActivX KiNativ screen (kinase selectivity in THP-1 cell lysates)) EUB0000639a RPS6KA1; assay type: subcellular; details: lysate
[4] = biological target: Calcium/calmodulin-dependent protein kinase type 1 (Homo sapiens) (UniProt Q14012); experiment: Selectivity interaction (ActivX KiNativ screen (kinase selectivity in THP-1 cell lysates)) EUB0000639a CAMK1; assay type: subcellular; details: lysate, at 0.2 µM
[5] = biological target: Ribosomal protein S6 kinase alpha-6 (Homo sapiens, UniProt Q9UK32); experiment: Selectivity interaction (Kinase panel (Invitrogen)) EUB0000639a RPS6KA6; details: at 200 nM
[6] = biological target: Voltage-dependent L-type calcium channel subunit alpha-1S (Homo sapiens) (UniProt Q13698); experiment: Selectivity interaction (Eurofins CEREP Diversity Profile (receptors and ion channels)) EUB0000279b CACNA1S; details: at 10 µM
[7] = biological target: Death-associated protein kinase 2 (Homo sapiens) (UniProt Q9UIK4); details: at 10 µM
[8] = biological target: T1, TGF-beta receptor type-1 (Homo sapiens) (UniProt P36897); experiment: Selectivity interaction (KinomeScan (DiscoverX)) EUB0000229b TGFBR1; details: at 10 µM
T1 sequence (whole entry): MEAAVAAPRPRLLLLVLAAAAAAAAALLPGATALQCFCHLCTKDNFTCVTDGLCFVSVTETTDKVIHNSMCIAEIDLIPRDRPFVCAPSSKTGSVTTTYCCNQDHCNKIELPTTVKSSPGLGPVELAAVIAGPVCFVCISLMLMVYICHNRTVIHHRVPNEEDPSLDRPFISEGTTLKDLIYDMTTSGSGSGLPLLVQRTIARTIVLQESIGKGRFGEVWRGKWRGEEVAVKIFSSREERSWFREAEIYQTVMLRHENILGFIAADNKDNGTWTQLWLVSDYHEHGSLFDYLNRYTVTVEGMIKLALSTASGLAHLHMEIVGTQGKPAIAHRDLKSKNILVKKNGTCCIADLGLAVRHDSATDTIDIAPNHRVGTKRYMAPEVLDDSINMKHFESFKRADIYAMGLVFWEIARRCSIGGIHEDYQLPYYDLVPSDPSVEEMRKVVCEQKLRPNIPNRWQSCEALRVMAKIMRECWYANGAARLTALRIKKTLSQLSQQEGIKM

[9] = biological target: Serine/threonine-protein kinase 32C (Homo sapiens) (UniProt Q86UX6); experiment: Selectivity interaction (KinomeScan (DiscoverX)) EUB0000229b STK32C; details: at 10 µM
[10] = biological target: Phosphatidylinositol 4,5-bisphosphate 3-kinase catalytic subunit beta isoform (Homo sapiens) (UniProt P42338); experiment: Selectivity interaction (KinomeScan (DiscoverX)) EUB0000092b PIK3CB; details: at 10 µM
[11] = biological target: T2, Serine/threonine-protein kinase Sgk3 (Homo sapiens) (UniProt Q96BR1); experiment: Selectivity interaction (KinomeScan (DiscoverX)) EUB0000655a SGK3; details: at 10 µM
T2 sequence (whole entry): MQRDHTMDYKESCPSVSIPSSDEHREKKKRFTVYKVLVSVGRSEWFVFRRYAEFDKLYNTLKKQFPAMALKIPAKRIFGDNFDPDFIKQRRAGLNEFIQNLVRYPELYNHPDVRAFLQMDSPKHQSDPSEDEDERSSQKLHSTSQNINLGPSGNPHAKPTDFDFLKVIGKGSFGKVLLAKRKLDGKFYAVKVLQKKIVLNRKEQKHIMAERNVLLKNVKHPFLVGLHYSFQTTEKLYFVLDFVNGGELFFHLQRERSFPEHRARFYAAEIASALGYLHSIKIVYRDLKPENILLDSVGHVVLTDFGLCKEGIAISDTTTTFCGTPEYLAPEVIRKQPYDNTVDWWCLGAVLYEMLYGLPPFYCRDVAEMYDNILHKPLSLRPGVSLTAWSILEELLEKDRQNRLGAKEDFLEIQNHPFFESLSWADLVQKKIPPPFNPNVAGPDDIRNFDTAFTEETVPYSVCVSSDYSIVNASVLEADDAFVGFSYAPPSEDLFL

[12] = biological target: T3, Serine/threonine-protein kinase MAK (Homo sapiens) (UniProt P20794); experiment: Selectivity interaction (KinomeScan (DiscoverX)) EUB0000618a MAK; details: at 10 µM
T3 sequence (whole entry): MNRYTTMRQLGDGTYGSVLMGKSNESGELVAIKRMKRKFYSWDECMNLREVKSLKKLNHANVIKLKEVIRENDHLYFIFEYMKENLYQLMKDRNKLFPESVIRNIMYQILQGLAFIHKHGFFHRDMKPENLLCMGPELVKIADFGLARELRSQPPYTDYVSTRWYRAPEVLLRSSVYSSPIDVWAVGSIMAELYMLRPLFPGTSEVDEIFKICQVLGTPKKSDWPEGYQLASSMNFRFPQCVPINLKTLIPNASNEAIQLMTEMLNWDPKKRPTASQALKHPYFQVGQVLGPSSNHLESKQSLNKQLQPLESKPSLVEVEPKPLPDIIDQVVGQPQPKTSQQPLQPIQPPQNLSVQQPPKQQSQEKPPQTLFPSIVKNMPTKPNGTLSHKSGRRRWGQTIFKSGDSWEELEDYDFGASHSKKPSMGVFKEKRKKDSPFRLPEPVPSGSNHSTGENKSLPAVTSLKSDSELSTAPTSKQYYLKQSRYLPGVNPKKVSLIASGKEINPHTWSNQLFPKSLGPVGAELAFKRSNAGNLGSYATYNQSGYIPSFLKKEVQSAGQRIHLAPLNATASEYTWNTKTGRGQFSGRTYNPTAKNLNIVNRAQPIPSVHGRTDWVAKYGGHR

[13] = biological target: Tyrosine-protein kinase ABL1 (Homo sapiens, UniProt P00519); experiment: Selectivity interaction (KinomeScan (DiscoverX)) EUB0000607a ABL1; details: at 10 µM

Ribosomal protein S6 kinase alpha-1, sequence (Q15418 whole entry): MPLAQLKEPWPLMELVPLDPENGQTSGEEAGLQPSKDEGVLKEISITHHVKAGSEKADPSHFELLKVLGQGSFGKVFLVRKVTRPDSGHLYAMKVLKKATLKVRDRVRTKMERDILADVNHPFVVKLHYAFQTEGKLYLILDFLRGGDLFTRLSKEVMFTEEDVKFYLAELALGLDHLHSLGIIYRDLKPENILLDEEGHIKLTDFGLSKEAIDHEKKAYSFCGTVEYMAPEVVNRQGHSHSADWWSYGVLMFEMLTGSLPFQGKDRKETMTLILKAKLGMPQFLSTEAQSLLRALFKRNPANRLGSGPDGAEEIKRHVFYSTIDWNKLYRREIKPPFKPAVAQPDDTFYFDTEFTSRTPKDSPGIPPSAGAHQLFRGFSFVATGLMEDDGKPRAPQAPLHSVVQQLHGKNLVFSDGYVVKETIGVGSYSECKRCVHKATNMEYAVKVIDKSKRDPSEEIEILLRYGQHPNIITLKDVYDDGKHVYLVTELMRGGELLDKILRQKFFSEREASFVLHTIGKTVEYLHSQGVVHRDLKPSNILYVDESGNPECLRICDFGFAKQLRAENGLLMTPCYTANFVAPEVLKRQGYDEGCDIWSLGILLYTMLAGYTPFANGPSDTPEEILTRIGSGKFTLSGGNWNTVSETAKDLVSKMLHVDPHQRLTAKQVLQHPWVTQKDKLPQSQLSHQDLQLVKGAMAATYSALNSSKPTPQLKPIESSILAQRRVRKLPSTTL
Voltage-dependent L-type calcium channel subunit alpha-1S (Homo sapiens), sequence (Q13698 whole entry): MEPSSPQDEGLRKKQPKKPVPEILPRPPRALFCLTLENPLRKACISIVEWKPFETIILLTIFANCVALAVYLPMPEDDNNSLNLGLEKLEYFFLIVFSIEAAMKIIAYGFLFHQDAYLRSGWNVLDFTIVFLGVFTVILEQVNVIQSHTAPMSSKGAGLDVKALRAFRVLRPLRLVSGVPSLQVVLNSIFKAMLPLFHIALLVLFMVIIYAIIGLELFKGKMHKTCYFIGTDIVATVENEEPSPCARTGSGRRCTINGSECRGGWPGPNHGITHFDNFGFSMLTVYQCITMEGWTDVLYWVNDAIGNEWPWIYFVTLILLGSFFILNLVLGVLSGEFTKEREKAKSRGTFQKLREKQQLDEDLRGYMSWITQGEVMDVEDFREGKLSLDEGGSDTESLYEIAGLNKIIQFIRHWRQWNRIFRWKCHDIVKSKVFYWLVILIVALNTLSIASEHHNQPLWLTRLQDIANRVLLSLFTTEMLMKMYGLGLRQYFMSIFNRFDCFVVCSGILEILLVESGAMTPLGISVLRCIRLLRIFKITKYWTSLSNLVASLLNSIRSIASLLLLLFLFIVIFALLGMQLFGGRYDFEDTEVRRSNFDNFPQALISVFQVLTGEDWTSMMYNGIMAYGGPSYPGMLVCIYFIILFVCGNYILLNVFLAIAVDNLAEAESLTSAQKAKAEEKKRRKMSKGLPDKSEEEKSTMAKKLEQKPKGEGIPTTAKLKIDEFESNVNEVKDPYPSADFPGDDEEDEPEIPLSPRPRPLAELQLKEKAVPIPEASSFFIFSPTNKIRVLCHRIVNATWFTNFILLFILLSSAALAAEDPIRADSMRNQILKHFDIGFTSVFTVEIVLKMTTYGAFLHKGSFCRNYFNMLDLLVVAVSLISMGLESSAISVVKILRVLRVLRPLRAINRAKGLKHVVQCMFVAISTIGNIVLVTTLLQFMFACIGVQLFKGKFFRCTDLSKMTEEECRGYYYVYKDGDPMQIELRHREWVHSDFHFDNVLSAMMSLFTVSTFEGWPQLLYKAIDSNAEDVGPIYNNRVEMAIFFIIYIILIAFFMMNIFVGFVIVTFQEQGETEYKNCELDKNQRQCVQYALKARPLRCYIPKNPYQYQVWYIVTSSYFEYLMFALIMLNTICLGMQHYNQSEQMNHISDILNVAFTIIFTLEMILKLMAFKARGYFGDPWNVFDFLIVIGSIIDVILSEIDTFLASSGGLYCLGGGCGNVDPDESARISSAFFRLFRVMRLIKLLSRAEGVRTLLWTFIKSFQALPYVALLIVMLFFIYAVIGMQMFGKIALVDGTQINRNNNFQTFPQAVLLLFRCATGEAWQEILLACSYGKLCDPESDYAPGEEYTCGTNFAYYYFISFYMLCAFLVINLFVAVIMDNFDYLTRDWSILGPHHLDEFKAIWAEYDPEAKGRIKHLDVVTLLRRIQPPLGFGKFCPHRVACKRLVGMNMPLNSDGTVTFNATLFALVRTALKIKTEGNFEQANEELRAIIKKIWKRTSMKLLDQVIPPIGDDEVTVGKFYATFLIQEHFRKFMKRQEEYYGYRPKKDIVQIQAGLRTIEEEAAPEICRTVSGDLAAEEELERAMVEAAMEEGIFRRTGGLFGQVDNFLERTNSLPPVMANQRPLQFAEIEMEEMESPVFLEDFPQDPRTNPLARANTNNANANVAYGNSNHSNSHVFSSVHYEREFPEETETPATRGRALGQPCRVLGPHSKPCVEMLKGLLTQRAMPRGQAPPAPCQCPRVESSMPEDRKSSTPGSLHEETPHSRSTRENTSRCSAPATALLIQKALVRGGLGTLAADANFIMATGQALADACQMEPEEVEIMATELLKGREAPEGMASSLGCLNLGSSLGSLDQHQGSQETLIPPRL
Calcium/calmodulin-dependent protein kinase type 1 (Homo sapiens), sequence (Q14012 whole entry, looked up): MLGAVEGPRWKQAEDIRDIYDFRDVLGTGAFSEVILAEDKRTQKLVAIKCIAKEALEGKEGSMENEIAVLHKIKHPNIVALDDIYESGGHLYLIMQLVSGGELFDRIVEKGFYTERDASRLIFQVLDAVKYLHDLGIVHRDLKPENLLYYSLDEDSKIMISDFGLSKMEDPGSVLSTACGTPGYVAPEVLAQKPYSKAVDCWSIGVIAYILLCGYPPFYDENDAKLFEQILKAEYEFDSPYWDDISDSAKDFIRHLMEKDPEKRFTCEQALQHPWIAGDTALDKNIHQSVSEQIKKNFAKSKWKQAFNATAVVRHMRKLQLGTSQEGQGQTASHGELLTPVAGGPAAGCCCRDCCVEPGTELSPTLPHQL
Phosphatidylinositol 4,5-bisphosphate 3-kinase catalytic subunit beta isoform (Homo sapiens), sequence (P42338 whole entry, looked up, canonical isoform): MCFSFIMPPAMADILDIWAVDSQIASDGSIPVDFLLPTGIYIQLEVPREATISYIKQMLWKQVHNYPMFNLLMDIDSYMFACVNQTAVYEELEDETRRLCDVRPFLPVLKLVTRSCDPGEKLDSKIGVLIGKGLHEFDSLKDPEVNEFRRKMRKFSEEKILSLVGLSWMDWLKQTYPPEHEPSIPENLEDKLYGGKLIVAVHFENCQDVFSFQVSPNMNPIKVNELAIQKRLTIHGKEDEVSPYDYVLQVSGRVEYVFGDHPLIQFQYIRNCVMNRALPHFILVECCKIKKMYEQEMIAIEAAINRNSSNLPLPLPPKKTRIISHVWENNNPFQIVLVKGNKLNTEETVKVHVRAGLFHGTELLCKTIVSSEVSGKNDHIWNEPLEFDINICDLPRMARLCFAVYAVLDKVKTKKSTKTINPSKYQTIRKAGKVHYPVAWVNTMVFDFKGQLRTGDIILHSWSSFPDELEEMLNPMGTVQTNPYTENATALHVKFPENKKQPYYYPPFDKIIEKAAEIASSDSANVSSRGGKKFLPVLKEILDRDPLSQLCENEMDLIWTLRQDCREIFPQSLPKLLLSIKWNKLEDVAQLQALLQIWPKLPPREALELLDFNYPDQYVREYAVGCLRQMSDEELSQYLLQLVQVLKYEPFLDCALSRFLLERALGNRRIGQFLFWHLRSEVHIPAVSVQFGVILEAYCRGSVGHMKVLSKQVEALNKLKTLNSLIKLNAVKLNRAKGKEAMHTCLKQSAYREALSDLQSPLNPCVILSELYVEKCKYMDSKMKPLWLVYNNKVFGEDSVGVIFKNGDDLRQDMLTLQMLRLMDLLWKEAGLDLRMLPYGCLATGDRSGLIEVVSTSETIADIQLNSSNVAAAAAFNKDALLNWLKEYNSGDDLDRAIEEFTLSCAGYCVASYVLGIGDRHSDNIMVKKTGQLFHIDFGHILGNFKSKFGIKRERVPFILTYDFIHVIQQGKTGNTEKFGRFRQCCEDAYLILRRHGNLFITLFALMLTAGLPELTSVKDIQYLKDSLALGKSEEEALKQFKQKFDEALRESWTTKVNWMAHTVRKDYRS
Serine/threonine-protein kinase MARK2 (Homo sapiens), sequence (Q7KZI7 whole entry): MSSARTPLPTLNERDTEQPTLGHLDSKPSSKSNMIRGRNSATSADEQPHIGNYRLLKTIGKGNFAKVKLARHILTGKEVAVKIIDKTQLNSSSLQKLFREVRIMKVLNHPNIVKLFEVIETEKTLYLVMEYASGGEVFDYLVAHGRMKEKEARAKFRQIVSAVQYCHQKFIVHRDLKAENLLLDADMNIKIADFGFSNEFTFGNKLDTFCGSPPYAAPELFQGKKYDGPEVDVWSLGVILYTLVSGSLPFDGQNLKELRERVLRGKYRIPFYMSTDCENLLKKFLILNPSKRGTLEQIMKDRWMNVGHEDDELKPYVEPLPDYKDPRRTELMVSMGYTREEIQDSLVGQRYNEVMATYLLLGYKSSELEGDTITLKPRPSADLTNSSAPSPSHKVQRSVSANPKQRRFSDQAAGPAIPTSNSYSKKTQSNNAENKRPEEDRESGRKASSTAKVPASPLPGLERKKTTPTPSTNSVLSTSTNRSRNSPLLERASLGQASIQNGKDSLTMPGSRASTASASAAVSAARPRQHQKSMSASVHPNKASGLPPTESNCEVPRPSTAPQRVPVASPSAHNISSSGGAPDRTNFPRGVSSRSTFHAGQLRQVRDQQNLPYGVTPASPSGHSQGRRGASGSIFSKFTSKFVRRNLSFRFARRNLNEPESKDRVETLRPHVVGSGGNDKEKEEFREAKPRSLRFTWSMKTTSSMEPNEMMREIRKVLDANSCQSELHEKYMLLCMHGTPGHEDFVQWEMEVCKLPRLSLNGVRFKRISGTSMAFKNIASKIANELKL

SMILES: COc1cc(Nc2nc(C)cc(-c3cnn4nc(OC)ccc34)n2)cc(C(F)(F)F)c1
- % of control [1]: 100%

- % of inhibition [2]: 23.8%
- % of inhibition ([3]; at 0.01 µM): 18.6%
- % of inhibition ([3]; at 0.04 µM): 18%
- % of inhibition ([3]; at 0.2 µM): 14.6%
- % of inhibition ([3]; at 1 µM): 14.7%
- % of inhibition ([3]; at 5 µM): 7.3%
- % of inhibition [4]: -2.3%
- % of inhibition [5]: -1.29%
SMILES: CC[C@@H]1[C@H](F)C(=O)N[C@@H]1COc1nccc2cc(C(N)=O)c(OC)cc12 [ZIMLOVISERTIB]

- % of control [6]: 89%
SMILES: CC(=O)c1cc(-c2ccccc2OCC2CC2)c2ncccn12

SMILES: CCN(CC)CCCCNc1ncc2cc(-c3cc(OC)cc(OC)c3)c(NC(=O)NC(C)(C)C)nc2n1
- % of control [7]: 100%

SMILES: COc1cc(N(C)c2ccnc3ccc(C(F)(F)F)cc23)cc(OC)c1OC
- % binding [8]: 89%
- % binding [9]: 99%

SMILES: CCC(=O)N1CCN(c2ccc(-n3c(=O)ccc4cnc5ccc(-c6cnc7ccccc7c6)cc5c43)cc2C(F)(F)F)CC1
- % of control [10]: 65%

SMILES: CN(C)CCOc1ccc(-c2nc(-c3ccncc3)c(-c3ccc4c(c3)CC/C4=N\O)[nH]2)cc1
- % of control [11]: 88%

SMILES: O[C@H]1CC[C@H](Nc2ncc3nc(Nc4c(F)cc(F)cc4F)n([C@H]4CCOC4)c3n2)CC1
- % of control [12]: 97%

SMILES: CNC(=O)Nc1ccc(-c2nc(N3CC4CCC(C3)O4)c3cnn(C4CCC5(CC4)OCCO5)c3n2)cc1
- % of control [13]: 100%
